In the assay the target is canine TRPM8 (Canis lupus familiaris, UniProt Q1A7N1). Briefly: In Vitro Canine TRPM8 Functional Assay (Ca2+ fluorescence, icilin activation). Type of assay: cell-based. To be noted: for inhibition at 0.5 µM: compound at 0.5 μM, read-out: % Inh @ 0.5. Put shortly: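 HEK293 cells stably expressing canine TRPM8 were loaded with Calcium 3 dye (35 min at 37 °C, then 25 min at room temperature). Compound was added and Ca2+ fluorescence was read for 5 min before icilin at a concentration giving about 80% maximal response. EC50/IC50 came from eight-point dose-response curves, quadruplicate wells.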
Chain of canine TRPM8 (Q1A7N1 1-1104): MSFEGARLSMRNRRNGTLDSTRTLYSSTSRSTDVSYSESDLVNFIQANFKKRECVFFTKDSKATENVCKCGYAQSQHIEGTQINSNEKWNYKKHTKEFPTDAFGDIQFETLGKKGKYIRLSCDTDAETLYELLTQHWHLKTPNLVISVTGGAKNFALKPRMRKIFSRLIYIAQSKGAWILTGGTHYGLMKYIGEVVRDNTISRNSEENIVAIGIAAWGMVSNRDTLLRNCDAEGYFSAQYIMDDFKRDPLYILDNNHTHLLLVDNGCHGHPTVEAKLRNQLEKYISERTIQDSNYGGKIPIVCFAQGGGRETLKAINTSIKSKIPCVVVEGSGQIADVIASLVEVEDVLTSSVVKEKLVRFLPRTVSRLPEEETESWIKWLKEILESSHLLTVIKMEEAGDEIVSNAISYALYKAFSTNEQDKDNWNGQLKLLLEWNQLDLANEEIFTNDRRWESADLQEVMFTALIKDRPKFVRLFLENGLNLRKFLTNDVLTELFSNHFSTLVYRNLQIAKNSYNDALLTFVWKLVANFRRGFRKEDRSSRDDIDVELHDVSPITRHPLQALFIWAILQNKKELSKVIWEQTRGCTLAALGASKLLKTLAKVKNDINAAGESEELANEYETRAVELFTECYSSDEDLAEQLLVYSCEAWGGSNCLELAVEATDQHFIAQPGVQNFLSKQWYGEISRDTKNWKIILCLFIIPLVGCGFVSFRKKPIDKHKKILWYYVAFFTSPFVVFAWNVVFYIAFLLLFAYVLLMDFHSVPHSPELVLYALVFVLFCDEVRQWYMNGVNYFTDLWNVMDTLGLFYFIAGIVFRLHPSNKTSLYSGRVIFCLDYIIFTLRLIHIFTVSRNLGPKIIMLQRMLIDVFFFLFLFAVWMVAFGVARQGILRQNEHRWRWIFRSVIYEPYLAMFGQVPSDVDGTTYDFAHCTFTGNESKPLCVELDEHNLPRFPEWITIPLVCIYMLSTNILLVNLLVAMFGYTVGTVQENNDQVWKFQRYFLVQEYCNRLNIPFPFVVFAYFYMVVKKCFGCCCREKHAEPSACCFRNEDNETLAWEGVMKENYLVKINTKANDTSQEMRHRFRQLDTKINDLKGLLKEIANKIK

Setting [1] is: HEK293 cells stably expressing canine TRPM8, icilin activation, eight-point dose-response, read-out: IC50.
Where [2] appears, read: compound at 0.2 μM, canine TRPM8, icilin activation, read-out: % Inh @ 0.2.
[3] abbreviates: canine TRPM8, icilin activation.
The mark [4] stands for this setting: HEK293 cells stably expressing canine TRPM8, icilin activation, average of two or more determinations, read-out: IC50.

pIC50: −log10 of the molar value. Read-outs that look alike come from different tables or passages of the source.

In the case of `O=C(O)c1ccc(S(=O)(=O)N(CCOC2CCCCC2)c2sc3ccccc3c2Br)cc1` [Compound 453, N-(3-Bromo-benzo[b]thiophen-2-yl)-N-(2-(cyclohexyloxy)ethyl)-4-carboxy-benzenesulfonamide], the pIC50 under setting [1] was 8.70. Also, under setting [2], the inhibition at 0.2 µM is 101%. In the same order, the values of `O=S(=O)(CC(F)(F)F)N(Cc1ccc(F)c(C(F)(F)F)c1)c1sc2ccccc2c1Br` [Compound 702, N-(3-Bromo-benzo[b]thiophen-2-yl)-N-(4-fluoro-3-trifluoromethyl-benzyl)-2,2,2-trifluoro-ethanesulfonamide] are 7.64 and 99%. In the case of `CCCCN(c1sc2ccccc2c1CN(C)C)S(=O)(=O)c1ccc(C(=O)OC)cc1` [Compound 420, N-(3-Dimethylaminomethyl-benzo[b]thiophen-2-yl)-N-(butyl)-4-carbomethoxy-benzenesulfonamide], under setting [2], the inhibition at 0.2 µM is 48%. `Cc1c(N(CCCC(F)(F)F)S(=O)(=O)c2ccc(C(C)(C)O)cc2)sc2ccccc12` [Compound 371, N-(3-Methyl-benzo[b]thiophen-2-yl)-N-(4,4,4-trifluoro-butyl)-4-(1-hydroxy-1-methyl-ethyl)-benzenesulfonamide]: the pIC50 under setting [1] is 8.05. The inhibition at 0.2 µM under setting [2] worked out at 94%. For `CCCCN(c1sc2cc(F)ccc2c1C)S(=O)(=O)c1ccc(C(=O)O)cc1` [Compound 450, N-(6-Fluoro-3-methyl-benzo[b]thiophen-2-yl)-N-(butyl)-4-carboxy-benzenesulfonamide], in that order: 7.54 and 101%. `CS(=O)(=O)CCN(c1sc2ccccc2c1Cl)S(=O)(=O)c1ccccc1` [Compound 88, N-(3-Chloro-benzo[b]thiophen-2-yl)-N-(2-methanesulfonyl-ethyl)-benzenesulfonamide]: the pIC50 under setting [1] is 6.58. In addition, the inhibition at 0.5 µM under setting [3] is 88%.

In the case of `CCCCN(c1sc2ccccc2c1C(C)=O)S(=O)(=O)c1ccc(C(=O)O)cc1` [Compound 342, N-(3-Acetyl-benzo[b]thiophen-2-yl)-N-(butyl)-4-carboxy-benzenesulfonamide], the pIC50 under setting [1] is 7.89. For the same molecule, under setting [2], the inhibition at 0.2 µM was 100%. In the case of `CCS(=O)(=O)N(CC1CC1)c1sc2ccccc2c1C` [Compound 112, N-(Cyclopropylmethyl)-N-(3-methyl-benzo[b]thiophen-2-yl)-ethanesulfonamide], under setting [1], the pIC50 is 7.52. Further, the inhibition at 0.2 µM under setting [2] was determined as 95%. In the case of `Cc1c(N(Cc2ccccc2)S(=O)(=O)c2ccc(C(=O)O)cc2)sc2ccccc12` [Compound 486, N-(3-Methyl-benzo[b]thiophen-2-yl)-N-(benzyl)-4-carboxy-benzenesulfonamide], under setting [2], the inhibition at 0.2 µM is 100%. The same measure, in the same setting: the same measure for `Cc1c(N(Cc2ccc(F)c(C(F)(F)F)c2)S(=O)(=O)c2ccc(-c3cc(C(F)(F)F)nn3C)s2)sc2ccccc12` [Compound 326, N-(3-Methyl-benzo[b]thiophen-2-yl)-N-(4-fluoro-3-trifluoromethyl-benzyl)-5-(2-methyl-5-trifluoromethyl-2H-pyrazol-3-yl)-thien-2-ylsulfonamide]: 14%. As to `COc1ccc(CN(c2sc3ccccc3c2Br)S(=O)(=O)c2ccccc2)cc1` [Compound 164, N-(3-Bromo-benzo[b]thiophen-2-yl)-N-(4-methoxy-benzyl)-benzenesulfonamide], the pIC50 under setting [1] is 7.50. The inhibition at 0.5 µM under setting [3] turned out to be 97%.

Turning to `COC(=O)c1ccc(S(=O)(=O)N(Cc2ccc(F)c(C(F)(F)F)c2)c2sc3ccccc3c2Cl)cc1` [Compound 194, N-(3-Chloro-benzo[b]thiophen-2-yl)-N-(4-fluoro-3-trifluoromethyl-benzyl)-4-carbomethoxy-benzenesulfonamide], under setting [2], the inhibition at 0.2 µM was 45%. On to `Cc1c(N(Cc2ccc(F)c(C(F)(F)F)c2)S(=O)(=O)c2cccc(-c3nnn[nH]3)c2)sc2ccccc12` [Compound 455, N-(3-Methyl-benzo[b]thiophen-2-yl)-N-(4-fluoro-3-trifluoromethyl-benzyl)-3-(1H-tetrazol-5-yl)-benzenesulfonamide], for which the pIC50 under setting [1] is 7.44. For the same molecule, the inhibition at 0.2 µM under setting [2] came to 101%. Consider `O=S(=O)(c1cccs1)N(Cc1ccc(F)c(C(F)(F)F)c1)c1sc2ccccc2c1Cl` [Compound 191, N-(3-Chloro-benzo[b]thiophen-2-yl)-N-(4-fluoro-3-trifluoromethyl-benzyl)-thiophene-2-sulfonamide], for which, under setting [2], the inhibition at 0.2 µM was 105%.

As to `COC(=O)CCS(=O)(=O)N(Cc1ccc(F)c(C(F)(F)F)c1)c1sc2ccccc2c1C` [Compound 71], the negative-log IC50 (pIC50) is 7.74. Where the note is “read-out: % Inh @ 0.2 (μM)”, the inhibition at 0.2 µM was found to be 98%.

Take `COc1ccc(S(=O)(=O)N(Cc2ccc(F)c(C(F)(F)F)c2)c2sc3ccccc3c2Cl)cc1` [Compound 181, N-(3-Chloro-benzo[b]thiophen-2-yl)-N-(4-fluoro-3-trifluoromethyl-benzyl)-4-methoxy-benzenesulfonamide]: the pIC50 under setting [1] was 7.08. For the same molecule, under setting [2], the inhibition at 0.2 µM is 95%. As for `Cc1nccc(-c2cccc(S(=O)(=O)N(Cc3ccc(F)c(C(F)(F)F)c3)c3sc4ccccc4c3C)c2)n1` [Compound 353, N-(3-Methyl-benzo[b]thiophen-2-yl)-N-(4-fluoro-3-trifluoromethyl-benzyl)-3-(2-methyl-pyrimidin-4-yl)-benzenesulfonamide], the pIC50 under setting [1] was 8.03. Also, the inhibition at 0.2 µM under setting [2] came to 98%.

For the molecule `Cc1ccccc1CN(c1sc2ccccc2c1Br)S(=O)(=O)c1ccccc1` [Compound 178, N-(3-Bromo-benzo[b]thiophen-2-yl)-N-(2-methyl-benzyl)-benzenesulfonamide], the pIC50 under setting [1] was 7.45. Besides, the inhibition at 0.5 µM under setting [3] turned out to be 96%.

As to `O=S(=O)(c1ccccc1)N(Cc1ccc(F)c(F)c1)c1sc2ccccc2c1CO` [Compound 213, N-(3,4-Difluoro-benzyl)-N-(3-hydroxymethyl-benzo[b]thiophen-2-yl)-benzenesulfonamide], under setting [1], the pIC50 was 8.85. In addition, the inhibition at 0.2 µM under setting [2] stood at 95%. In the same order, the values of `Cc1c(N(CCC2CC2)S(=O)(=O)c2ccc(-c3noc(=O)[nH]3)cc2)sc2ccccc12` [Compound 613, N-(3-Methyl-benzo[b]thiophen-2-yl)-N-(cyclopropyl-ethyl)-4-(5-oxo-4,5-dihydro-[1,2,4]oxadiazol-3-yl)-benzenesulfonamide] are 8.18 and 101%. In the same order, the values of `CCCCN(C1=C(Br)c2ccccc2S1(=O)=O)S(=O)(=O)c1ccc(C(=O)O)cc1` [Compound 435, N-(Butyl)-N-(3-bromo-1,1-dioxo-1H-benzo[b]thiophen-2-yl)-4-carboxy-benzenesulfonamide] are 7.48 and 95%. In the case of `O=S(=O)(c1cc(Br)ccc1Br)N(Cc1ccc(F)c(F)c1)c1sc2ccccc2c1CO` [Compound 834, 2,5-Dibromo-N-(3,4-difluoro-benzyl)-N-(3-hydroxymethyl-benzo[b]thiophen-2-yl)-benzenesulfonamide], the inhibition at 0.2 µM (0.2 μM compound, HEK293 cells stably expressing canine TRPM8, icilin activation, read-out: % Inh @ 0.2) was 87%. Further, the pIC50 under setting [4] was 6.91. For the molecule `Cc1c(N(Cc2ccc(F)c(C(F)(F)F)c2)S(=O)(=O)c2ccc(C(=O)NS(C)(=O)=O)cc2)sc2ccccc12` [Compound 623, N-(3-Methyl-benzo[b]thiophen-2-yl)-N-(4-fluoro-3-trifluoromethyl-benzyl)-4-methanesulfonylaminocarbonyl-benzenesulfonamide], under setting [1], the pIC50 was 8.15. Further, the inhibition at 0.2 µM under setting [2] was determined as 101%. For `O=S1(=O)C(N(Cc2ccc(F)c(C(F)(F)F)c2)S(=O)(=O)c2ccccc2)=Cc2ccccc21` [Compound 421, N-(4-Fluoro-3-trifluoromethyl-benzyl)-N-(1,1-dioxo-benzo[b]thiophen-2-yl)-benzenesulfonamide], in that order: 7.19 and 90%.

Take `Cc1c(N(Cc2ccc(OC(F)(F)F)cc2)S(=O)(=O)c2cnccc2-c2noc(=O)[nH]2)sc2ccccc12` [Compound 808, N-(3-Methyl-benzo[b]thiophen-2-yl)-N-(4-trifluoromethoxy-benzyl)-4-(5-oxo-4,5-dihydro-[1,2,4]oxadiazol-3-yl)-pyrid-3-ylsulfonamide]: the pIC50 under setting [4] was 9.15.

Consider `O=S(=O)(c1cccc(O)c1)N(Cc1ccc(F)c(C(F)(F)F)c1)c1sc2ccccc2c1Cl` [Compound 288, N-(3-Chloro-benzo[b]thiophen-2-yl)-N-(4-fluoro-3-trifluoromethyl-benzyl)-3-hydroxy-benzenesulfonamide], for which the pIC50 under setting [1] is 7.70. Also, the inhibition at 0.2 µM under setting [2] was found to be 90%.

As for `Cc1c(N(Cc2ccc(F)c(C(F)(F)F)c2)S(=O)(=O)c2ccc(C(=O)O)cc2)sc2cc(C(F)(F)F)ccc12` [Compound 557, N-(3-Methyl-6-trifluoromethyl-benzo[b]thiophen-2-yl)-N-(4-fluoro-3-trifluoromethyl-benzyl)-4-carboxy-benzenesulfonamide], under setting [2], the inhibition at 0.2 µM was determined as 39.5%. As to `O=S(=O)(c1ccccn1)N(Cc1ccc(F)c(F)c1)c1cc2ccccc2s1` [Compound 9, N-(Benzo[b]thiophen-2-yl)-N-(3,4-difluoro-benzyl)-pyridine-2-sulfonamide], the pIC50 under setting [1] was 7.33. Under setting [3], the inhibition at 0.5 µM came to 98%. `CCS(=O)(=O)N(Cc1ccc(F)c(F)c1)c1sc2ccccc2c1C(C)O` (centres unmarked) [Compound 221, N-(3,4-Difluoro-benzyl)-N-[3-(1-hydroxy-ethyl)-benzo[b]thiophen-2-yl]-ethanesulfonamide]: the pIC50 under setting [1] was 8.30. Also, under setting [2], the inhibition at 0.2 µM was 92%.

For `O=S(=O)(c1ccccc1)N(Cc1ccc(F)cc1)c1sc2ccccc2c1Cl` [Compound 4, N-(3-Chloro-benzo[b]thiophen-2-yl)-N-(4-fluoro-benzyl)-benzenesulfonamide], the pIC50 under setting [1] was 8.40. Under setting [3], the inhibition at 0.5 µM came out at 97%.

(Values after patent US9434711B2 (Janssen Pharmaceutica, NV, priority 2007, dated 2016).)
